The results in this text go back to patent publication US20040091937A1, “Use of fluorine NMR for high throughput screening” (priority 2002, published 2004).

Several values for one entry are separate records, joined by “and”; a condition that tells them apart may be missing. Equal entries are not always repeated. Structures can show the parent of a compound that is named as a salt.

In assay [1] the target is T1, human serum albumin (Homo sapiens, UniProt P02768). The assay is described as follows: 19F NMR spin-echo competition binding screening against HSA with spy molecule (3) and control molecule (2).
T1 sequence (P02768 25-609): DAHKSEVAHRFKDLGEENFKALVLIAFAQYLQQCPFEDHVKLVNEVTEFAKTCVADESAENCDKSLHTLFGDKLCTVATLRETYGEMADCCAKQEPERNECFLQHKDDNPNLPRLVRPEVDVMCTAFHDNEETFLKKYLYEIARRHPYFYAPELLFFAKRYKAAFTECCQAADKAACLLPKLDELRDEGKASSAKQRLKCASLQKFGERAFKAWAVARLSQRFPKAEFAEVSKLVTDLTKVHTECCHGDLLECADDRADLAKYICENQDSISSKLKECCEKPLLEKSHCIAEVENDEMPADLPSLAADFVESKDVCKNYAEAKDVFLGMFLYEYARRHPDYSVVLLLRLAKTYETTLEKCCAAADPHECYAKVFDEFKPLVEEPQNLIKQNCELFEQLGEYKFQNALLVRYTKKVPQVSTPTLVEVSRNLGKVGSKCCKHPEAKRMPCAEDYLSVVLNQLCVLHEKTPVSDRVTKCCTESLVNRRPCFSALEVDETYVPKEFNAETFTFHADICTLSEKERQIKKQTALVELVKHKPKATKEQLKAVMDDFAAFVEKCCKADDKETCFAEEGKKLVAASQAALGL
Method: (§1) D2O was added to the solution (8% final concentration) for the lock signal.
A dual coil {^19F}-{^1H} probe was used with the inner coil tuned to ^19F and the outer coil tuned to ^1H frequency. […] These signals are broad and therefore are not visible in the spectra of the reference and control molecule recorded with a spin-echo scheme. All the spectra were recorded with a weak Waltz-16 proton decoupling applied during the acquisition period. Typically 4-8 dummy scans were recorded for temperature equilibration. Carr-Purcell-Meibom-Gill schemes of different length and long 2τ interval were used before the acquisition period. Chemical shifts were referenced to trifluoroacetic acid.
These techniques also provide the number of binding sites (n) for the reference molecule a parameter that is very important for the competition binding experiments.
For screening, a total spin-echo period (2nτ) was selected for which the signal of the reference molecule is approaching zero.
Assay [2] concerns the target T1, human serum albumin. The assay is described as follows: Isothermal titration calorimetry with HSA. The format is binding. The arrangement: purchased Sigma A-3782. The procedure:
Isothermal titration calorimetry experiments were performed using an OMEGA titrating microcalorimeter from Microcal, Inc. (Northampton, Mass.). The titrating microcalorimeter consisted of a sample and reference cell held in an adiabatic enclosure. The reference cell was filled with PBS. […] Analyte at 0.8 mM in the same buffer was held in a 250 μL syringe. Thirty injections (8 μL each and 12 seconds/injection) of analyte were made by a computer controlled stepper motor into the sample cell held at 25° C. The syringe stir rate was 400 rpm. Heat adsorbed or released with each injection was measured by a thermoelectric device connected to a Microcal nanovolt preamplifier. Titration isotherms for the binding interactions were comprised of the differential heat flow for each injection. Heat of dilution obtained by injecting analyte into PBS was negligible. Binding isotherms were fit to a single binding site model (T. Wiseman et al., Anal. Biochem., 179, 131-137 (1989)) using an iterative nonlinear least-squares algorithm included with the instrument.

A further assay concerns the target T2, PAK4 (Homo sapiens, UniProt O96013).
T2 construct: GST (cleaved yes); made in house; host or cells: E. coli
The assay is described as follows: 19F NMR binding and competition binding screening and deconvolution against p21-activated kinase. Particulars: 15 μM TFA, 1.5 μM protein.

T2 sequence (O96013 321-572 limits assumed, species assumed): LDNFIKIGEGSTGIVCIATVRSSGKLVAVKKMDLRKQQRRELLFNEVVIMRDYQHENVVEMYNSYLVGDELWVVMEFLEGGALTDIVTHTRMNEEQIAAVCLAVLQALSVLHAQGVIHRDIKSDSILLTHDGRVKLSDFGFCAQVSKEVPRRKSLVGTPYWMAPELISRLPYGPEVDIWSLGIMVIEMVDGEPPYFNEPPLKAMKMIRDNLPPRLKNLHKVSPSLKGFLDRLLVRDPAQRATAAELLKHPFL
Method for PAK4: as §1
The signal of the non-interacting molecule represents an internal reference that can be used for calibrating with a single experiment the changes in the signal of the spy molecule. […] It should be noted that some compounds in the screening may contain traces of TFA.

On to `Cc1ccc2[nH]cc(CC(N)C(=O)O)c2c1` (centres unmarked) [5-CH3 D,L Trp], for which the “effect on the 19F signal of the spy molecule (3) (displacement from HSA)” value on human serum albumin [1] (600 nM HSA, 50 μM (3), 25 μM (2), 50 μM 5-CH3 D,L Trp and sucrose, 25 μM (4)) was “do not alter the spectrum of the spy molecule”.

For `FC(F)(F)c1nnc(N2CCNCC2)s1` [(2), 1-[5-(trifluoromethyl)1,3,4-thiadiazol-2-yl]piperazine], at human serum albumin [2] (8 μL injections of 800 μM into 30 μM HSA), the “evidence of binding to HSA by ITC” value is on record as “did not find any evidence of binding to HSA”.

For the molecule `O=C(O)c1cccc(F)c1O` [(3), 2-hydroxy 3-fluorobenzoic acid], the Kd on human serum albumin [2] (HSA in PBS + 2% DMSO, 25° C., single binding site model, read-out: ITC derived KD) was 41 ± 3.3 µM; at human serum albumin [1] (KD^app, apparent KD of (3), 50 μM, with 25 μM (4) and 0.6 μM HSA) it was 327 µM and 300 µM.

For `O=C(O)C(F)(F)F` [trifluoroacetic acid (TFA), trifluoroacetic acid], on PAK4, the “interaction with the protein (19F spectra in absence and presence of protein)” value is “non-interacting”.
